Assay results reported in patent publication US11884676B2, “Substituted pyrimido[1,2-b]pyridazines as positive allosteric modulators of the muscarinic acetylcholine receptor M4” (Vanderbilt University, priority 2020, dated 2024).
pEC50: −log10 of the molar value.

Molecular target: T1, Human M4 (Homo sapiens, UniProt P08173)
T1 construct: expressed in transfected cells
T1 sequence (P08173 1-479): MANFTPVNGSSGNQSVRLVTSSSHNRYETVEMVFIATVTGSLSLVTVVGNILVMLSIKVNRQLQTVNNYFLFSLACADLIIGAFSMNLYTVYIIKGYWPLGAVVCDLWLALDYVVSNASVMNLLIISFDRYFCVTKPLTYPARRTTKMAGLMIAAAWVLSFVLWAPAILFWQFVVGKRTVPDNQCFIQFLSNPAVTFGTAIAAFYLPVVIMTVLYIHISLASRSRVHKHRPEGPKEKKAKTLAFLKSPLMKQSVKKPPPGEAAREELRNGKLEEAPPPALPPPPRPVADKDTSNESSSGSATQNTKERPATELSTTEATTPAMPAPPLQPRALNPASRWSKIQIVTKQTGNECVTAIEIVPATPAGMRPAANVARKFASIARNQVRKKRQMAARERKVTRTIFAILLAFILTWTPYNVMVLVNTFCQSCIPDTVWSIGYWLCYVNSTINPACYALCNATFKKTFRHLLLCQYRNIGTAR
Assay: mAChR M4 cell-based functional assay (calcium flux, PAM mode)
Conditions: hM4-Gqi5 CHO-K1 cells; for Emax at 30 µM: CHO-K1, % ACh maximum at 30 μM; for pEC50: concentration-dependent increase in the EC20 acetylcholine response
In short: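 CHO-K1 cells stably co-expressing human M4 and chimeric Gqi5, Fluo-4 loaded; compound added first (11-point, 1:3 CRC), then EC20 acetylcholine at 144 s and EC80 at 230 s. PAM activity read on FDSS as concentration-dependent increase of EC20 ACh calcium response; EC50 and Emax from four-parameter logistic fit.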

Compound	Emax at 30 µM	pEC50	Human M4 Emax (%)* (% ACh maximum at 30 μM)
Cc1cc(=O)n2nc(N3CC[C@@H](Oc4ccc5c(c4)OCCO5)[C@@H](F)C3)c(C)cc2n1 [Compound 33, 7-((3S,4R)-4-((2,3-dihydrobenzo[b][1,4]dioxin-6-yl)oxy)-3-fluoropiperidin-1-yl)-2,8-dimethyl-4H-pyrimido[1,2-b]pyridazin-4-one]	117%	7.40	
Cc1cc2nccc(=O)n2nc1N1CC[C@@H](Oc2ccc3c(c2)OCCO3)C[C@H]1C (stereo in doubt) [Compound 106, 7-((2R,4R)-4-((2,3-dihydrobenzo[b][1,4]dioxin-6-yl)oxy)-2-methylpiperidin-1-yl)-8-methyl-4H-pyrimido[1,2-b]pyridazin-4-one]	81%	6.09	
Cc1ccc(OC2CCN(c3nn4c(=O)ccnc4c(C)c3C)CC2)cc1 [Compound 77, 8,9-dimethyl-7-(4-(p-tolyloxy)piperidin-1-yl)-4H-pyrimido[1,2-b]pyridazin-4-one]	101%	7.04	
COCc1ccc(OC2CCN(c3nn4c(=O)ccnc4cc3C)CC2)cn1 [Compound 76, 7-(4-((6-(methoxymethyl)pyridin-3-yl)oxy)piperidin-1-yl)-8-methyl-4H-pyrimido[1,2-b]pyridazin-4-one]	60%	< 5.00	
[2H]C1(Oc2ccc3c(c2)OCCCO3)CCN(c2nn3c(=O)cc(C(F)(F)F)nc3cc2C)CC1 [Compound 64, 7-(4-((3,4-dihydro-2H-benzo[b][1,4]dioxepin-7-yl)oxy)piperidin-1-yl-4-d)-8-methyl-2-(trifluoromethyl)-4H-pyrimido[1,2-b]pyridazin-4-one]	104%	6.76	
Cc1cc2nccc(=O)n2nc1N1CC[C@@H](Oc2ccc3c(c2)OCCO3)[C@H](F)C1 [Compound 32, 7-((3R,4R)-4-((2,3-dihydrobenzo[b][1,4]dioxin-6-yl)oxy)-3-fluoropiperidin-1-yl)-8-methyl-4H-pyrimido[1,2-b]pyridazin-4-one]	81%	6.83	
Cc1cc2nccc(=O)n2nc1N1CC[C@@H](Oc2ccc3c(c2)OCO3)[C@H](F)C1 [Compound 53, 7-((3R,4R)-4-(benzo[d][1,3]dioxol-5-yloxy)-3-fluoropiperidin-1-yl)-8-methyl-4H-pyrimido[1,2-b]pyridazin-4-one]	86%	6.80	
Cc1c(N2CCC(Oc3ccc(C(F)(F)F)cc3)CC2)nn2c(=O)cc(C(F)F)nc2c1C [Compound 81, 2-(difluoromethyl)-8,9-dimethyl-7-(4-(4-(trifluoromethyl)phenoxy)piperidin-1-yl)-4H-pyrimido[1,2-b]pyridazin-4-one]	73%	5.64	
Cc1cc2nc(C)c(F)c(=O)n2nc1N1CC[C@@H](Oc2ccc3c(c2)OCCO3)[C@H](F)C1 [Compound 36, 7-((3R,4R)-4-((2,3-dihydrobenzo[b][1,4]dioxin-6-yl)oxy)-3-fluoropiperidin-1-yl)-3-fluoro-2,8-dimethyl-4H-pyrimido[1,2-b]pyridazin-4-one]	116%	7.40	
Cc1cc2nccc(=O)n2nc1N1CCC(Oc2ccc(C(C)C)cc2)CC1 [Compound 90, 7-(4-(4-isopropylphenoxy)piperidin-1-yl)-8-methyl-4H-pyrimido[1,2-b]pyridazin-4-one]	63%	5.95	
[2H]C1(Oc2ccc3c(c2)OCCO3)CCN(c2nn3c(=O)c(C)c(C)nc3cc2C)CC1 [Compound 60, 7-(4-((2,3-dihydrobenzo[b][1,4]dioxin-6-yl)oxy)piperidin-1-yl-4-d)-2,3,8-trimethyl-4H-pyrimido[1,2-b]pyridazin-4-one]	91%	7.55	
Cc1cc(=O)n2nc(N3CCC(Oc4ccc5c(c4)C(=O)NCC5)CC3)c(C)cc2n1 [Compound 72, 2,8-dimethyl-7-(4-((1-oxo-1,2,3,4-tetrahydroisoquinolin-7-yl)oxy)piperidin-1-yl)-4H-pyrimido[1,2-b]pyridazin-4-one]	74%	5.81	
[2H]C1(Oc2ccc3c(c2)OC([2H])([2H])C([2H])([2H])O3)CCN(c2nn3c(=O)cc(C(F)(F)F)nc3c(C)c2C)CC1 [Compound 95, 7-(4-((2,3-dihydrobenzo[b][1,4]dioxin-6-yl-2,2,3,3-d4)oxy)piperidin-1-yl-4-d)-8,9-dimethyl-2-(trifluoromethyl)-4H-pyrimido[1,2-b]pyridazin-4-one]	87%	7.14	

Further lines, results first:

Emax at 30 µM	pEC50	Human M4 Emax (%)* (% ACh maximum at 30 μM)	Compound
84%	7.52		[2H]C1(Oc2ccc3c(c2)OC([2H])([2H])C([2H])([2H])O3)CCN(c2nn3c(=O)cc(C)nc3c(C)c2C)CC1 [Compound 94, 7-(4-((2,3-dihydrobenzo[b][1,4]dioxin-6-yl-2,2,3,3-d4)oxy)piperidin-1-yl-4-d)-2,8,9-trimethyl-4H-pyrimido[1,2-b]pyridazin-4-one]
98%	7.12		Cc1cc2nccc(=O)n2nc1N1CCC(Oc2cc(F)c3c(c2)OCCO3)CC1 [Compound 135, 7-(4-((8-fluoro-2,3-dihydrobenzo[b][1,4]dioxin-6-yl)oxy)piperidin-1-yl)-8-methyl-4H-pyrimido[1,2-b]pyridazin-4-one]
	5.68	82%	[2H]C1([2H])Oc2ccc(OC3CCN(c4nn5c(=O)ccnc5c(C)c4C4CC4)CC3)cc2OC1([2H])[2H] [Compound 21, 8-cyclopropyl-7-(4-((2,3-dihydrobenzo[b][1,4]dioxin-6-yl-2,2,3,3-d4)oxy)piperidin-1-yl)-9-methyl-4H-pyrimido[1,2-b]pyridazin-4-one]
84%	5.82		COc1ncc(OC2CCN(c3nn4c(=O)ccnc4cc3C)CC2)cc1C [Compound 75, 7-(4-((6-methoxy-5-methylpyridin-3-yl)oxy)piperidin-1-yl)-8-methyl-4H-pyrimido[1,2-b]pyridazin-4-one]
125%	7.28		[2H]C1([2H])Oc2ccc(O[C@@H]3CCN(c4nn5c(=O)ccnc5c(C)c4C)C[C@H]3F)cc2OC1([2H])[2H] [Compound 128, 7-((3R,4R)-4-((2,3-dihydrobenzo[b][1,4]dioxin-6-yl-2,2,3,3-d4)oxy)-3-fluoropiperidin-1-yl)-8,9-dimethyl-4H-pyrimido[1,2-b]pyridazin-4-one]
91%	7.36		[2H]C1([2H])Oc2ccc(OC3CCN(c4nn5c(=O)c(Cl)cnc5cc4C)CC3)cc2OC1([2H])[2H] [Compound 23, 3-chloro-7-(4-((2,3-dihydrobenzo[b][1,4]dioxin-6-yl-2,2,3,3-d4)oxy)piperidin-1-yl)-8-methyl-4H-pyrimido[1,2-b]pyridazin-4-one]
79%	6.97		[2H]C1([2H])Oc2cc(OC3CCN(c4nn5c(=O)c(Cl)cnc5cc4C)CC3)cc(C)c2OC1([2H])[2H] [Compound 27, 3-chloro-8-methyl-7-(4-((8-methyl-2,3-dihydrobenzo[b][1,4]dioxin-6-yl-2,2,3,3-d4)oxy)piperidin-1-yl)-4H-pyrimido[1,2-b]pyridazin-4-one]
76%	6.30		CCc1ccc(OC2CCN(c3nn4c(=O)ccnc4cc3C)CC2)cc1 [Compound 89, 7-(4-(4-ethylphenoxy)piperidin-1-yl)-8-methyl-4H-pyrimido[1,2-b]pyridazin-4-one]
114%	6.80		[2H]C1([2H])Oc2ccc(O[C@@H]3CCN(c4nn5c(=O)ccnc5cc4C)C[C@H]3F)cc2OC1([2H])[2H] [Compound 41, 7-((3R,4R)-4-((2,3-dihydrobenzo[b][1,4]dioxin-6-yl-2,2,3,3-d4)oxy)-3-fluoropiperidin-1-yl)-8-methyl-4H-pyrimido[1,2-b]pyridazin-4-one]
93%	6.54		[2H]C1([2H])Oc2cc(OC3CCN(c4nn5c(=O)ccnc5cc4C)CC3)cc(C)c2OC1([2H])[2H] [Compound 28, 8-methyl-7-(4-((8-methyl-2,3-dihydrobenzo[b][1,4]dioxin-6-yl-2,2,3,3-d4)oxy)piperidin-1-yl)-4H-pyrimido[1,2-b]pyridazin-4-one]
73%	7.06		[2H]C1([2H])Oc2ccc(OC3CCN(c4nn5c(=O)cc(C6CC6)nc5cc4C)CC3)cc2OC1([2H])[2H] [Compound 10, 2-Cyclopropyl-7-(4-((2,3-dihydrobenzo[b][1,4]dioxin-6-yl-2,2,3,3-d4)oxy)piperidin-1-yl)-8-methyl-4H-pyrimido[1,2-b]pyridazin-4-one]
93%	7.15		[2H]C1([2H])Oc2ccc(OC3CCN(c4nn5c(=O)cc(C(F)(F)F)nc5c(C)c4C)CC3)cc2OC1([2H])[2H] [Compound 7, 7-(4-((2,3-Dihydrobenzo[b][1,4]dioxin-6-yl-2,2,3,3-d4)oxy)piperidin-1-yl)-8,9-dimethyl-2-(trifluoromethyl)-4H-pyrimido[1,2-b]pyridazin-4-one]
84%	7.18		Cc1cc2nccc(=O)n2nc1N1CCC(Oc2ccc3c(c2)OCCO3)CC1 [Compound 26, 7-(4-((2,3-dihydrobenzo[b][1,4]dioxin-6-yl)oxy)piperidin-1-yl)-8-methyl-4H-pyrimido[1,2-b]pyridazin-4-one]
